Assay results from USRE30560E, “Oxazolidinedione derivatives of Vinca alkaloids” (Eli Lilly and Company, priority 1979, dated 1981).

Columns and labels:
[1] = system: Gardner lymphosarcoma (GLS); assay: Percent inhibition of transplanted Gardner lymphosarcoma (GLS) in mice; assay type: in vivo; conditions: for inhibitory activity orally / oral activity: oral; for inhibitory activity orally: 6-7 mg./kg. (3"-methyl) and 3-6 mg./kg. (3"-(β-chloroethyl)); for oral activity: 2 (VLB) and 2-4.5 (vincristine) mg./kg.
Experimental: (§1) The following table--Table 1--gives the results of several experiments in which mice bearing transplanted tumors were treated successfully with a compound of this invention. In the table, column 1 gives the name of the compound; column 2, the transplanted tumor; column 3, the dose level or dose level range and the number of days the dosage was administered; column 4, the route of administration, and column 5, the percent inhibition of tumor growth or percent prolongation of survival time, e.g., B16 and P388. (ROS is an abbreviation for Ridgeway osteogenic sarcoma; GLS for Gardner lymphosarcoma; P1534(J) and P388 are leukemias; CA755 is an adenocarcinoma; and B16 is a melamoma).

transplanted tumors [2] = conditions: C-3 amides; cited from earlier work
B16 = assay: Percent prolongation of survival time, mice bearing transplanted B16 melanoma; assay type: in vivo
Experimental: as §1

P1534(J) = assay: Percent inhibition, mice bearing transplanted P1534(J) leukemia; assay type: in vivo
Experimental: as §1

[3] = system: Ridgeway osteogenic sarcoma (ROS); assay: Percent inhibition of transplanted Ridgeway osteogenic sarcoma (ROS) in mice; assay type: in vivo; conditions: for inhibitory activity orally / oral activity: oral; for inhibitory activity orally: 6-7 mg./kg. (3"-methyl) and 3-6 mg./kg. (3"-(β-chloroethyl)); for oral activity: 2 (VLB) and 2-4.5 (vincristine) mg./kg.
Experimental: as §1

CA755 = assay: Percent inhibition of transplanted CA755 adenocarcinoma in mice; assay type: in vivo; conditions: for inhibitory activity orally / oral activity: oral; for inhibitory activity orally: 6-7 mg./kg. (3"-methyl) and 3-6 mg./kg. (3"-(β-chloroethyl)); for oral activity: 2 (VLB) and 2-4.5 (vincristine) mg./kg.
Experimental: as §1

[4] = Toxicity on oral administration in tumor-bearing animals; assay type: in vivo, experimental animals; conditions: above 2 (VLB) and 2-4.5 (vincristine) mg./kg.
transplanted tumors [5] = assay: Activity against transplanted tumors in mice (general statements); assay type: in vivo; conditions: for activity by the oral route: same tumors in experimental animals; for dose level showing comparable tumor inhibition or prolongation of life: parenteral, intraperitoneal route
Experimental: as §1

leukemias = conditions: humans; cited from earlier work
[6] = humans; compared with vincristine; cited from earlier work

## CC[C@]1(O)C[C@@H]2CN(CCc3c([nH]c4ccccc34)[C@@](C(=O)OC)(c3cc4c(cc3OC)N(C)[C@H]3[C@]5(OC(=O)N(C)C5=O)[C@H](OC(=O)NC)[C@]5(CC)C=CCN6CC[C@]43[C@@H]65)C2)C1 [4-desacetyl VLB 3"-methyl-3-spiro-5"-oxazolidine-2",4"-dione-4-(N-methyl)carbamate]
[1]; 0.1-2.5 mg./kg. × 7-9 days, IP
  Percent Inhibition: 40-100%

## CC[C@]1(O)C[C@@H]2CN(CCc3c([nH]c4ccccc34)[C@@](C(=O)OC)(c3cc4c(cc3OC)N(C)[C@H]3[C@]5(OC(=O)N(C)C5=O)[C@H](O)[C@]5(CC)C=CCN6CC[C@]43[C@@H]65)C2)C1 [4-desacetyl VLB 3"-methyl-3-spiro-5"-oxazolidone-2",4"-dione]
[1]; 2.5 mg./kg. × 7 days, IP
  Percent Inhibition: 27%

## CC[C@]1(O)C[C@@H]2CN(CCc3c([nH]c4ccccc34)[C@@](C(=O)OC)(c3cc4c(cc3OC)N(C)[C@H]3[C@@](O)(C(=O)NCCS)[C@H](O)[C@]5(CC)C=CCN6CC[C@]43[C@@H]65)C2)C1 [C-3 N-(β-mercaptoethyl)carboxamide of 4-desacetyl VLB]
Transplanted tumors [2]
  anti-tumor activity in mice: highly effective anti-tumor agent in mice

## CC[C@]1(O)C[C@@H]2CN(CCc3c([nH]c4ccccc34)[C@@](C(=O)OC)(c3cc4c(cc3OC)N(C)[C@H]3[C@]5(OC(=O)N(CCCl)C5=O)[C@H](OC(C)=O)[C@]5(CC)C=CCN6CC[C@]43[C@@H]65)C2)C1 [VLB 3"-(β-chloroethyl)-3-spiro-5"-oxazolidine-2",4"-dione]
B16; 0.4-0.6 mg./kg. × 10 days, IP
  Percent Prolongation of Survival Time: 25-178%
  indefinite survivors (survived for 60 days till end of trial): 5
[1]; 0.65 mg./kg. × 10 days, IP
  Percent Inhibition: 47%
[1]; 0.5-0.6 mg./kg. × 9-10 days, IP
  Percent Inhibition: 50-74%
[1]; 3-4 mg./kg. × 9 days, PO
  Percent Inhibition: 92-100%
[1]
  inhibitory activity orally: 100%
P1534(J); 3.5 mg./kg. × 8 days, PO
  Percent Inhibition or Prolongation of Survival Time: 100%
P1534(J); 0.4-0.6 mg./kg. × 10 days, IP
  Percent Inhibition or Prolongation of Survival Time: 61-86%
[3]
  inhibitory activity orally: 100%
CA755; 0.75-1.0 mg./kg. × 10 days, IP
  Percent Inhibition: 53%
CA755; 3-5 mg./kg. × 9-10 days, PO
  Percent Inhibition: 59-92%
CA755
  inhibitory activity orally: 100%

## C=CCN1C(=O)O[C@]2(C1=O)[C@H](OC(C)=O)[C@]1(CC)C=CCN3CC[C@@]4(c5cc([C@@]6(C(=O)OC)C[C@H]7CN(CCc8c6[nH]c6ccccc86)C[C@](O)(CC)C7)c(OC)cc5N(C)[C@@H]24)[C@@H]31 [VLB 3"-allyl-3-spiro-5"-oxazolidine-2",4"-dione]
[1]; 2.5 mg./kg. × 7 days, IP
  Percent Inhibition: 35%

## CC[C@]1(O)C[C@@H]2CN(CCc3c([nH]c4ccccc34)[C@@](C(=O)OC)(c3cc4c(cc3OC)N(C)[C@H]3[C@]5(OC(=O)N(C)C5=O)[C@H](OC(C)=O)[C@]5(CC)C=CCN6CC[C@]43[C@@H]65)C2)C1 [VLB 3"-methyl-3-spiro-5"-oxazolidine-2",4"-dione]
B16; 4.5 mg./kg. × 10 days, IP (so in the source)
  Percent Prolongation of Survival Time: 49-91%
B16; 0.5-0.6 mg./kg. × 10 days, IP
  indefinite survivors (survived for 60 days till end of trial): 3
[1]; 0.6 mg./kg. × 7 days, IP
  Percent Inhibition: 100%
[1]; 1.25 mg./kg. × 9 days, IP
  Percent Inhibition: 100%
[1]; 3-4 mg./kg. × 10 days, PO
  Percent Inhibition: 100%
[1]; 3-5 mg./kg. × 10 days, PO
  Percent Inhibition: 37-56%
[1]
  inhibitory activity orally: 100%
P1534(J); 3-4 mg./kg. × 8 days, PO
  Percent Inhibition or Prolongation of Survival Time: 100%
P1534(J); .5-.6 mg./kg. × 10 days, IP
  Percent Inhibition or Prolongation of Survival Time: 100%
[3]; 5-7 mg./kg. × 10 days, PO
  Percent Inhibition: 38-59%
[3]
  inhibitory activity orally: 100%
CA755; 0.5-1.0 mg./kg. × 10 days, IP
  Percent Inhibition: 45-100%
CA755
  inhibitory activity orally: 100%

## CC[C@]1(O)C[C@@H]2CN(CCc3c([nH]c4ccccc34)[C@@](C(=O)OC)(c3cc4c(cc3OC)N(C)[C@H]3[C@@](O)(C(=O)OC)[C@H](OC(C)=O)[C@]5(CC)C=CCN6CC[C@]43[C@@H]65)C2)C1 [VLB, vincaleukoblastine, reference compound]
[4]
  toxicity at higher levels: usually are toxic at higher levels
[1]
  oral activity: only marginally active, if at all
Transplanted tumors [5]
  activity by the oral route: do not show this degree of oral activity
  dose level showing comparable tumor inhibition or prolongation of life: 0.4 to 0.45 mg/kg
[3]
  oral activity: only marginally active, if at all
CA755
  oral activity: only marginally active, if at all

## CC[C@]1(O)C[C@@H]2CN(CCc3c([nH]c4ccccc34)[C@@](C(=O)OC)(c3cc4c(cc3OC)N(C=O)[C@H]3[C@]5(OC(=O)N(C)C5=O)[C@H](OC(C)=O)[C@]5(CC)C=CCN6CC[C@]43[C@@H]65)C2)C1 [Vincristine 3"-methyl-3-spiro-5"-oxazolidine-2",4"-dione]
[1]; 1.0 mg./kg. × 7 days, IP
  Percent Inhibition: 61%

## CC[C@]1(O)C[C@H]2CN(CCc3c([nH]c4ccccc34)[C@@](C(=O)OC)(c3cc4c(cc3OC)N(C=O)[C@H]3[C@@](O)(C(=O)OC)[C@H](OC(C)=O)[C@]5(CC)C=CCN6CC[C@]43[C@@H]65)C2)C1 [vincristine, leurocristine]
[4]
  toxicity at higher levels: usually are toxic at higher levels
leukemias
  activity in the treatment of leukemias: most active and useful agent in the treatment of leukemias
[1]
  oral activity: only marginally active, if at all
Transplanted tumors [5]
  activity by the oral route: do not show this degree of oral activity
  dose level showing comparable tumor inhibition or prolongation of life: 0.2 to 0.25 mg/kg
[3]
  oral activity: only marginally active, if at all
CA755
  oral activity: only marginally active, if at all

## CC[C@]1(O)C[C@@H]2CN(CCc3c([nH]c4ccccc34)[C@@](C(=O)OC)(c3cc4c(cc3OC)N(C)[C@H]3[C@@](O)(C(N)=O)[C@H](O)[C@]5(CC)C=CCN6CC[C@]43[C@@H]65)C2)C1 [vindesine, 4-desacetyl VLB C-3 carboxamide]
leukemias
  activity in the treatment of leukemias: active in certain leukemias
[6]
  neurotoxicity: less neurotoxicity than does vincristine
